The record followed here is US11472781B2, “2-aminoaryl-5-aryloxazole analogs for the treatment of neurodegenerative diseases” (Southern Research Institute, priority 2018, dated 2022).

As a reminder, the EC50 is the concentration giving half of the maximal effect. Usually solubility stands for how much of the substance goes into solution per volume. Read a high solubility as much dissolved substance.

In brackets after ≈: the same amount, converted by molar mass. Where two headings read alike, the source gives them in different places.

One data set in a line: In vivo PK (I.V./P.O.). Details: species or system mice. As to conditions: for half-life: male, CD1, mouse, plasma. Here is the method: Before the studies above were initiated, congenic SOD1 G93A mice were dosed with 50 mg/kg of compound no. 1 and compound no. 2 via I.P. injection to rule out any toxicity issues prior to initiating the efficacy study (FIG. 4A-C).
The experiments will involve the administration of compounds to 5-6 week old CD1 male mice. Mice are dosed by either a 1 mg/kg IV bolus or 5 mg/kg oral gavage. Blood samples are collected by cardiac puncture at 0, 0.25, 0.5, 1, 2, 4, 6, 8, 12, and 24 hrs. There will be three mice per time point. Plasma concentration over time will be determined by LC/MS from which the standard PK parameters of clearance, volume of distribution, t1/2 and % F can be derived using WinNoLin software (Pharsight Inc.). This will require a total of 60 mice per compound. Plasma will be analyzed by reverse phase chromatography with MS/MS detection operating in the positive ion mode using multiple reaction monitoring using an internal standard and Applied Biosystems Analyst 1.4 software. Peak time (when maximum plasma drug concentration occurs), peak drug level [approximate maximum concentrations of drug in plasma (Cmax)] and t1/2 for drug elimination will be estimated for each tested compound. Bioavailability (F) will be calculated from the ratio of AUCPO/AUCIV and expressed as a percentage. To determine levels in brain, six additional mice will be dosed with 1 mg/kg I.V. and sacrificed at 0.25 and 1 hr. Brain and spinal cord samples will be collected at these two time points, quick frozen in an ice box and kept at −75±15° C. All samples will be weighed and homogenized with phosphate buffered saline (PBS) by brain weight (g) to PBS volume (mL) ratio 1:3 before analysis. The actual concentration is the detected value multiplied by the dilution factor.

Data set [1] deals with SOD2. Description: Quantitative RT-PCR for SOD2 mRNA in SH-SY5Y neuroblastoma cells. Format: cell-based, human. As to conditions: 1 μM, 6 h. Here is the method:
Referring to FIG. 1A and FIG. 1B, SH-SY5Y neuroblastoma cells were treated with vehicle or compounds (1 μM) for 6 or 24 hours, and cells were collected for RNA isolation (Trizol method). Quantitative RT-PCR for Manganese superoxide dismutase (SOD2; FIG. 1A) or brain-derived neurotrophic factor (BDNF, exon 1; FIG. 1B) indicates short-term upregulation of SOD2 and BDNF and sustained upregulation of BDNF (n=3-4/group, one-way ANOVA followed by unpaired t-test; […]).
Referring to FIG. 6, treatment of SH-SY5Y neuroblastoma cells with compounds (1 μM, 6 h) induced SOD2 mRNA expression >2 fold, as detected by q-RT-PCR. N=4/group, mean+/−SEM, 2-way ANOVA, post-hoc t-test. *p<0.05).

Data set [2] is described as follows: Plasma and brain levels after I.P. dosing of SOD1 G93A mice. Format: in vivo. As to conditions: 50 mg/kg I.P., within 30 minutes.
For data set [3], the system named is SOD2. The data set can be described thus: Quantitative RT-PCR for SOD2 mRNA in NSC-34 neuroblastoma cells. The class given is cell-based, mouse. As to conditions: NSC-34, 1 μM, 24 h.
Data set [4] relates to SOD2. The data set can be described thus: SOD2 protein expression and SOD activity in primary rat cortical cultures. The class given is cell-based. From the text: N=3-6/group, mean+/−SEM, *p<0.05, **p<0.01, 2-way ANOVA, post-hoc t-test.
For a further data set, the system named is NF-κB. Description: High throughput assay for NF-κB reporter activity (luciferase) in stably transfected SH-SY5Y cells. Format: cell-based, human. As to conditions: Homo sapiens. Here is the method:
SH-SY5Y human neuroblastoma cell line was obtained from the American Tissue Culture collection (ATCC). A commercially available expression vector containing the NF-kB promoter enhancer region driving the firefly luciferase gene expression and a second plasmid containing the gene conferring resistance to blasticidin were used in a dual transfection approach to obtain a stable cell line. […] Luciferase activity was measured as a reporter of NF-kB activation using the Bright-Glo Luciferase assay kit (Cat. No. E2620, Promega, Madison, Wis.) according to the manufacturer's instructions. Cell viability was measured using the CellTiter-Glo Luminescent Cell Viability assay kit (Cat. No. G7572, Promega, Madison, Wis.) according to the manufacturer's instructions. Briefly, cells were equilibrated at room temperature for 30 min prior to the addition of Bright-Glo to the white opaque plates or CellTiter-Glo to the black clear bottom plates. A volume of assay buffer equal to the volume of cell media was added to each well and incubated for five min to allow complete cell lysis. All procedures were performed in the dark.

Data set [5] concerns SOD1 G93A transgenic mouse. Description: Efficacy in the SOD1 G93A transgenic mouse model of ALS. The class given is in vivo. As to conditions: 25 mg/kg I.P. daily from day 96. Here is the method:
Briefly, Congenic SOD1-G93A mice were doced with up to 50 mg/kg of both compounds (IP) to evaluate any toxicity issues prior to initiating the efficacy study. Also, mice administered 20 mg of each compound had high plasma and brain levels at 30 minutes. Next, individually genotyped SOD1-G93A mice (Prize4life-Jackson Labs) were treated with each compound (25 mg/kg, IP) at disease onset (day 96). The treatment extended survival, reduced weight loss and improved the neurologic symptoms. […] The average weight within the groups before the treatment was similar.
While compounds which increase SOD2 expression and activity have potential utility in a number of neurodegenerative diseases involving ROS overproduction, it was decided to test these two compounds in a mouse model of ALS for a variety of reasons, including the evidence for oxidative stress in ALS (described above), the ability of these compounds to induce SOD2 in a motor neuron-like mouse cell line (NSC-34; FIG. 3B), and the availability of a mouse model with dysfunction in SOD1 (human SOD1 G93A transgenic mouse; Jackson Laboratory). The pilot experiment involved treating six wildtype and six SOD1 G93A transgenic males on the C57BL/6 background with 25 mg/kg compound no. 1 and compound no. 2 I.P. daily, beginning around disease onset (day 96; FIG. 4A and FIG. 4B). Mouse survival and behavioral phenotype were observed based on guidelines from “Working with ALS mice: JAX handbook,” using a 4-point severity score (FIG. 4C).
Referring to FIG. 4A and FIG. 4B, SOD1 G93A mice received daily IP injections of saline (control) or compounds (25 mg/kg) starting on day 96.
Referring. To FIG. 4C, progression from neurological score 1 was delayed only by compound no. 2 (2 day delay, +30%), progression to higher (worse) scores was delayed by both compounds. *P<0.05; **P<0.01, 2-way ANOVA.

Another data set in a line: Solubility. As to conditions: buffer, pH 7.4, aqueous buffer, kinetic from dmso stock. Format: physicochemical. From the text: A standard panel of in vitro ADME assays will be utilized to assess drug-like properties of compounds and to inform subsequent in vivo PK studies. These assays include: (a) Permeability: MDCK (Madin Darby Canine Kidney) cells transfected with the MDR1 gene encoding for the multi-drug resistant transporter (Pgp) will be utilized to determine a compound's ability to permeate the membrane in apical to basolateral (A-B) and basolateral to apical (B-A) directions. The derived apparent permeability coefficient (Papp) provides an estimate of passive permeability; a ratio of Papp in the B-A/A-B direction gives an estimate of transporter efflux; (b) Solubility: Kinetic solubility is an important parameter for accurate determinations of the dose response. This is estimated using the shake flask method with a μSol Explorer (PION, Billerica, Mass.) at pH 7.4. Compounds are added as a DMSO solution to buffer. The average of two determinations at pH 7.4 will be reported. Solubility at pH 7.4 is relevant for in vitro assays; (c) Metabolic Stability: The potential for a high metabolic clearance compound is estimated using a liver microsome assay. […] The disappearance of the parent molecule is measured by liquid chromatography/mass spectroscopy (LC/MS) detection. […]

Take `Cc1cccnc1Nc1nc(-c2ccccn2)cs1` [Compound 2]: the oral bioavailability result in the data set “In vivo PK (I.V./P.O.)” (I.V./P.O., 1 and 5 mg/kg, respectively) was “lack of oral bioavailability”. For the same compound, the half-life in the data set “In vivo PK (I.V./P.O.)” (I.V./P.O., 1 and 5 mg/kg, respectively, read-out: plasma half-life (t1/2)) was less than 0.0833 h. For the same compound, the results for the “SOD2 mRNA expression” value with SOD2 [1] (q-RT-PCR), with SOD2 [1] (SH-SY5Y) and in the data set with SOD2 [3] were roughly 2 fold, “induce SOD2” and “induce SOD2”, respectively. For the same compound, in data set [2], the “plasma and brain levels” value is “substantial plasma and brain levels”. Also, the SOD2 protein expression entry with SOD2 [4] was “induce SOD2”. Further, the SOD activity result with SOD2 [4] is recorded as “increase”. In addition, the maximal fold induction in the data set on NF-κB (24 h, read-out: Emax) was found to be 40. Moreover, in the data set with NF-κB (24 hr, read-out: EC50), the EC50 came to 210 nM. In addition, the “progression to higher (worse) neurological scores / score of 4” value in data set [5] was “delayed”. Moreover, in data set [5], the survival entry was “significantly prolonged”.

In the case of `O=C(O)c1cccc(-c2cnc(Nc3ccccc3F)o2)c1` [Compound 40, 3-(2-((2-Fluorophenyl)amino)oxazol-5-yl)benzoic Acid], the half-life in the data set “In vivo PK (I.V./P.O.)” (iv, 1 mg/kg, I.V., read-out: I.V. t1/2 (converted)) was 1.4 h. Besides, the orally bioavailable in the data set “In vivo PK (I.V./P.O.)” (oral) came out at 16%. The compound further registered a solubility in “Solubility” of 56 µM (≈ 16.7 µg/mL).
